# Assay results: patent US12721844B2, “Chronic kidney disease treatment or prevention method” (Japan Tobacco Inc., priority 2019, dated 2026)
# How the values were obtained:
# Type in all cases: cell-based
# [1] = tested on: Salmonella typhimurium TA1535; experiment: Ames test (reverse mutation test), TA1535
# Source text: (§1) Ames Test (Reverse Mutation Test)
# (§2) Two plates per treatment were used.
# [2] = tested on: Salmonella typhimurium (TA98, TA1537, TA100, and TA1535) and Escherichia coli (WP2 uvrA); experiment: Ames test (reverse mutation test), all bacterial tester strains; conditions: any of the bacterial tester strains, with and/or without S9 mix
# Source text: as §1, §2
# [3] = tested on: Salmonella typhimurium TA98; experiment: Ames test (reverse mutation test), TA98; conditions: with S9 mix
# Source text: as §1, §2
# [4] = tested on: Salmonella typhimurium TA100; experiment: Ames test (reverse mutation test), TA100; conditions: with S9 mix
# Source text: as §1, §2
# [5] = tested on: Salmonella typhimurium TA1537; experiment: Ames test (reverse mutation test), TA1537
# Source text: as §1, §2
# [6] = tested on: Escherichia coli WP2 uvrA; experiment: Ames test (reverse mutation test), WP2 uvrA; conditions: S9 Mix −
# Source text: as §1, §2
# [7] = biological target: T1, human SGLT1 (Homo sapiens, UniProt P13866); experiment: Assessment of SGLT1 inhibitory activity (14C-AMG uptake in human SGLT1-stably-expressing CHO-K1 cell line); conditions: CHO-K1; at 0.3 μM; read-out: hSGLT1 inhibition
# T1 sequence (P13866 1-664): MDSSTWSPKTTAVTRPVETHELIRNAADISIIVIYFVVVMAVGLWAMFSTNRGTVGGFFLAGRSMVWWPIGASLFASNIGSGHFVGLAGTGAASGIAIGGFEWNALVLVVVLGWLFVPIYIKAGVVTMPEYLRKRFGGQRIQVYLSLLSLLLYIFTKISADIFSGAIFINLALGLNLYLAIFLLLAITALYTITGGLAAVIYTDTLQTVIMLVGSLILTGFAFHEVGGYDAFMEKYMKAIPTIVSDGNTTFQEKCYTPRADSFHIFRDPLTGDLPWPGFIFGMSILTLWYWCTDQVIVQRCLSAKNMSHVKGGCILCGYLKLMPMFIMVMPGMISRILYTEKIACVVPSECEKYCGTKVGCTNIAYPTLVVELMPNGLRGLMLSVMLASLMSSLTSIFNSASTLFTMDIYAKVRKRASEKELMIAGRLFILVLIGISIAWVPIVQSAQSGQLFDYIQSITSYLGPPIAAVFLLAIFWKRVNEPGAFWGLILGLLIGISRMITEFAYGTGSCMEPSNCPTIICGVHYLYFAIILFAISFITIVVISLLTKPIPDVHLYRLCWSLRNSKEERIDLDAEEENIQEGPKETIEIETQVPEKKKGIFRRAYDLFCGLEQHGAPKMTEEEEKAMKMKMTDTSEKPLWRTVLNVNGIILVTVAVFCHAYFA
# Description: Assessment of SGLT1 Inhibitory Activity
# SGLT1 inhibitory activities of test compounds (IC50 values) were calculated based on the amount of intracellular uptake of labelled […] (^14C-AMG) transported by SGLT1.
# 1) Formation of Human SGLT1-Expressing Plasmid
# A DNA fragment containing human SGLT1 was amplified by PCR (Polymerase Chain Reaction) using pCMV6-hSGLT1 (OriGene) as a template. In the human SGLT1, NheI recognition and cleavage sequence was added to the upstream of Kozac consensus sequence derived from a vector, and a stop codon, TAG, and SalI recognition and cleavage sequence were added to the immediate downstream of the protein-translating region of human SGLT1. […]
# Human SGLT1-stably-expressing cell lines were seeded at 5×10^4 cells/well on BioCoat™ Poly-D-Lysine 96 well plate with Lid (Becton, Dickinson and Company) and cultured at 37° C. under 5% CO2 overnight. […] In the assessment for the uptake ability of ^14C-AMG, the total amount of the cell lysate was transferred to OptiPlate 96 (Perkin-E1mer) with 100 μL/well of MicroScint-40 (Perkin-E1mer) dispensed and ^14C of CPM was measured with TOPCOUNT NXT (Perkin-E1mer).
# Data was calculated by deducting the average value of CPM for blank well from the average value of CPM for each well treated. […]
# [8] = with S9 mix, dose 1667 μg/plate
# [9] = with S9 mix, dose 5000 μg/plate
# [10] = without S9 mix, dose 6.9 μg/plate
# [11] = without S9 mix, dose 21 μg/plate
# [12] = without S9 mix, dose 62 μg/plate
# [13] = without S9 mix, dose 185 μg/plate
# [14] = without S9 mix, dose 556 μg/plate
# [15] = without S9 mix, dose 1667 μg/plate
# [16] = without S9 mix, dose 5000 μg/plate
compound,measurement,setting,value
Nc1cc(-c2cc(F)cc(OC(F)(F)F)c2)n(-c2cncc(C(F)(F)F)c2)n1 [Metabolite 5],Number of revertant colonies TA1535,"[1]; with S9 mix, dose 6.9 μg/plate",10
same,Number of revertant colonies TA1535,"[1]; with S9 mix, dose 21 μg/plate",11
same,Number of revertant colonies TA1535,"[1]; with S9 mix, dose 62 μg/plate",10
same,Number of revertant colonies TA1535,"[1]; with S9 mix, dose 185 μg/plate",9
same,Number of revertant colonies TA1535,"[1]; with S9 mix, dose 556 μg/plate",7
same,Number of revertant colonies TA1535,[1]; [8],4
same,Number of revertant colonies TA1535,[1]; [9],2
same,Number of revertant colonies TA1535,[1]; [10],9
same,Number of revertant colonies TA1535,[1]; [11],11
same,Number of revertant colonies TA1535,[1]; [12],4
same,Number of revertant colonies TA1535,[1]; [13],7
same,Number of revertant colonies TA1535,[1]; [14],6
same,Number of revertant colonies TA1535,[1]; [15],3
same,Number of revertant colonies TA1535,[1]; [16],4
same,potential to induce reverse mutations,[2],did not show potential to induce reverse mutations
Nc1cc(-c2cc(F)cc(OC(F)(F)F)c2)n(-c2cncc(F)c2)n1 [Metabolite 3],Number of revertant colonies TA1535,"[1]; with S9 mix, dose 6.9 μg/plate",8
same,Number of revertant colonies TA1535,"[1]; with S9 mix, dose 21 μg/plate",9
same,Number of revertant colonies TA1535,"[1]; with S9 mix, dose 62 μg/plate",11
same,Number of revertant colonies TA1535,"[1]; with S9 mix, dose 185 μg/plate",9
same,Number of revertant colonies TA1535,"[1]; with S9 mix, dose 556 μg/plate",4
same,Number of revertant colonies TA1535,[1]; [8],3
same,Number of revertant colonies TA1535,[1]; [9],1
same,Number of revertant colonies TA1535,[1]; [10],9
same,Number of revertant colonies TA1535,[1]; [11],11
same,Number of revertant colonies TA1535,[1]; [12],10
same,Number of revertant colonies TA1535,[1]; [13],8
same,Number of revertant colonies TA1535,[1]; [14],8
same,Number of revertant colonies TA1535,[1]; [15],0
same,Number of revertant colonies TA1535,[1]; [16],0
same,potential to induce reverse mutations,[2],did not show potential to induce reverse mutations
Nc1cc(-c2cccc(OCC(F)(F)F)c2)n(-c2ccc(F)cc2)n1 [Metabolite E],Number of revertant colonies TA1535,"[1]; S9 Mix +, 2.3 μg/plate",18
same,Number of revertant colonies TA1535,"[1]; S9 Mix +, 6.9 μg/plate",32
same,Number of revertant colonies TA1535,"[1]; S9 Mix +, 21 μg/plate",20
same,Number of revertant colonies TA1535,"[1]; S9 Mix +, 62 μg/plate",21
same,Number of revertant colonies TA1535,"[1]; S9 Mix +, 185 μg/plate",15
same,Number of revertant colonies TA1535,"[1]; S9 Mix +, 556 μg/plate",7
same,Number of revertant colonies TA1535,"[1]; S9 Mix +, 1667 μg/plate",0
same,Number of revertant colonies TA1535,"[1]; S9 Mix +, 5000 μg/plate",0
same,Number of revertant colonies TA1535,"[1]; S9 Mix −, 2.3 μg/plate",10
same,Number of revertant colonies TA1535,"[1]; S9 Mix −, 6.9 μg/plate",18
same,Number of revertant colonies TA1535,"[1]; S9 Mix −, 21 μg/plate",12
same,Number of revertant colonies TA1535,"[1]; S9 Mix −, 62 μg/plate",15
same,Number of revertant colonies TA1535,"[1]; S9 Mix −, 185 μg/plate",6
same,Number of revertant colonies TA1535,"[1]; S9 Mix −, 556 μg/plate",0
same,Number of revertant colonies TA1535,"[1]; S9 Mix −, 1667 μg/plate",0
same,Number of revertant colonies TA1535,"[1]; S9 Mix −, 5000 μg/plate",0
same,"potential to induce reverse mutations, TA1535",[1]; with S9 mix,showed potential to induce reverse mutations
same,"potential to induce reverse mutations, TA98",[3],showed potential to induce reverse mutations
same,"potential to induce reverse mutations, TA100",[4],showed potential to induce reverse mutations
same,"potential to induce reverse mutations, TA1537",[5]; with S9 mix,showed potential to induce reverse mutations
same,"potential to induce reverse mutations, TA1537",[5]; without S9 mix,showed potential to induce reverse mutations
same,Number of revertant colonies WP2uvrA,[6]; 2.3 μg/plate,20
same,Number of revertant colonies WP2uvrA,[6]; 6.9 μg/plate,26
same,Number of revertant colonies WP2uvrA,[6]; 21 μg/plate,24
same,Number of revertant colonies WP2uvrA,[6]; 62 μg/plate,27
same,Number of revertant colonies WP2uvrA,[6]; 185 μg/plate,22
same,Number of revertant colonies WP2uvrA,[6]; 556 μg/plate,10
same,Number of revertant colonies WP2uvrA,[6]; 1667 μg/plate,15
same,Number of revertant colonies WP2uvrA,[6]; 5000 μg/plate,7
C[C@H]1C(=O)NC[C@@H]1C(=O)Nc1cc(-c2cccc(OC(F)(F)F)c2)n(-c2ccc(Cl)nn2)n1 [Example 10],inhibition at 0.3 µM,[7],45%
CC(C)(C)Oc1cc(F)cc(-c2cc(N)nn2C(F)(F)F)c1 [Metabolite 1],Number of revertant colonies TA1535,"[1]; with S9 mix, dose 2.3 μg/plate",13
same,Number of revertant colonies TA1535,"[1]; with S9 mix, dose 6.9 μg/plate",7
same,Number of revertant colonies TA1535,"[1]; with S9 mix, dose 21 μg/plate",6
same,Number of revertant colonies TA1535,"[1]; with S9 mix, dose 62 μg/plate",8
same,Number of revertant colonies TA1535,"[1]; with S9 mix, dose 185 μg/plate",5
same,Number of revertant colonies TA1535,"[1]; with S9 mix, dose 556 μg/plate",4
same,Number of revertant colonies TA1535,[1]; [8],4
same,Number of revertant colonies TA1535,[1]; [9],2
same,Number of revertant colonies TA1535,"[1]; without S9 mix, dose 2.3 μg/plate",6
same,Number of revertant colonies TA1535,[1]; [10],9
same,Number of revertant colonies TA1535,[1]; [11],8
same,Number of revertant colonies TA1535,[1]; [12],8
same,Number of revertant colonies TA1535,[1]; [13],0
same,Number of revertant colonies TA1535,[1]; [14],0
same,Number of revertant colonies TA1535,[1]; [15],0
same,Number of revertant colonies TA1535,[1]; [16],0
same,potential to induce reverse mutations,[2],did not show potential to induce reverse mutations
